In patent US8338465B2, “Cyclic carboxylic acid rhodanine derivatives for the treatment and prevention of tuberculosis” (priority 2006, dated 2012):

Biological target: T1, dihydrolipoamide acyltransferase (DlaT) (Mycobacterium tuberculosis, UniProt P9WIS7)
T1 sequence (P9WIS7 1-553): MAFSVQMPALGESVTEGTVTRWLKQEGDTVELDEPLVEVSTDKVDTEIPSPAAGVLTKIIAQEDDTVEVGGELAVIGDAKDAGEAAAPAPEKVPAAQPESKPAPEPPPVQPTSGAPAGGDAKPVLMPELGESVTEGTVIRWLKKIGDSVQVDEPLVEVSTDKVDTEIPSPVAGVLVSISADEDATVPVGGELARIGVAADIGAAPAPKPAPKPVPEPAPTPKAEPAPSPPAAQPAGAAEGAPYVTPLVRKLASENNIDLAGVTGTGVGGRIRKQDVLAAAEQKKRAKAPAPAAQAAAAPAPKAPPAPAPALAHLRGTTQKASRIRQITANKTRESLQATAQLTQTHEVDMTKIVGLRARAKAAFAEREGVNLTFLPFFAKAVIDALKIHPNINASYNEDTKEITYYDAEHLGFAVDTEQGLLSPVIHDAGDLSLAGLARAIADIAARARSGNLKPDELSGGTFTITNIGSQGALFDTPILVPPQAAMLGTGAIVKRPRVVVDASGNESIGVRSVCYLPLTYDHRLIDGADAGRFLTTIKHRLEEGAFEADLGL
Experiment: DlaT inhibition (Dlat IC50); DTNB peroxidase assay with Lpd, DlaT and AhpD
Assay type: biochemical
Conditions: Dlat IC50 category

Row | Molecule | IC50
1 | CC(C)(C)c1ccc(-c2ccc(C=C3SC(=S)N(Nc4ccccc4C(=O)O)C3=O)o2)cc1 (single isomer, unassigned) [Compound D2, 2-{5-[1-[5-(4-tert-butyl-phenyl)-furan-2-yl]-meth-(E)-ylidene]-4-oxo-2-thioxo-thiazolidin-3-ylamino}-benzoic acid] | < 10 µM
2 | O=C(O)c1ccccc1NN1C(=O)/C(=C\c2ccc(-c3ccc(N4CCOCC4)cc3)o2)SC1=S (single isomer, unassigned) [Compound D6, 2-{5-[1-[5-(4-morpholin-4-yl-phenyl)-furan-2-yl]-meth-(E)-ylidene]-4-oxo-2-thioxo-thiazolidin-3-ylamino}-benzoic acid] | 11 to 40 µM

Same assay, conditions: Table 1, Compounds A1 to A294; read-out: Dlat IC50 category

Row | Molecule | IC50
3 | O=C(O)c1cccc(N2C(=O)C(=Cc3ccc(-c4cccc(C(F)(F)F)c4)o3)SC2=S)c1 [Compound A2] | < 10 µM
4 | O=C(O)c1cccc(N2C(=O)C(=Cc3ccc(-c4ccc(Cc5ccccc5)cc4)o3)SC2=S)c1 [Compound A3] | < 10 µM
5 | O=C(O)c1cccc(N2C(=O)C(=Cc3ccc(-c4cccc(Cl)c4)o3)SC2=S)c1 [Compound A4] | 11 to 40 µM
6 | O=C(O)c1cccc(N2C(=O)C(=Cc3cccc(-c4ccccc4Cl)n3)SC2=S)c1 [Compound A5] | > 41 µM
7 | NS(=O)(=O)c1ccc(N2C(=O)C(=Cc3ccc(-c4ccccc4Cl)o3)SC2=S)cc1 [Compound A6] | 11 to 40 µM
8 | O=C(O)c1cccc(N2C(=O)C(=Cc3ccc(-c4ccc(Cl)c(Cl)c4)o3)SC2=S)c1 [Compound A7] | < 10 µM
9 | O=C(O)c1ccc(N2C(=O)C(=Cc3ccc(-c4ccc(Cl)c(Cl)c4)o3)SC2=S)cc1 [Compound A8] | < 10 µM
10 | NS(=O)(=O)c1ccc(N2C(=O)C(=Cc3ccc(-c4ccc(Cl)c(Cl)c4)o3)SC2=S)cc1 [Compound A9] | 11 to 40 µM
11 | O=C(O)c1ccc(N2C(=O)C(=Cc3ccc(-c4cccc(C(F)(F)F)c4)o3)SC2=S)cc1 [Compound A10] | 11 to 40 µM
12 | O=C(O)c1ccc(N2C(=O)C(=Cc3ccc(-c4ccc(Cc5ccccc5)cc4)o3)SC2=S)cc1 [Compound A11] | 11 to 40 µM
13 | NS(=O)(=O)c1ccc(N2C(=O)C(=Cc3ccc(-c4ccc(Cc5ccccc5)cc4)o3)SC2=S)cc1 [Compound A12] | 11 to 40 µM
14 | O=C(O)c1cccc(N2C(=O)C(=Cc3ccc(-c4ccc(Oc5ccccc5)cc4)o3)SC2=S)c1 [Compound A13] | < 10 µM
15 | O=C(O)c1ccc(N2C(=O)C(=Cc3ccc(-c4ccc(Oc5ccccc5)cc4)o3)SC2=S)cc1 [Compound A14] | 11 to 40 µM
16 | NS(=O)(=O)c1ccc(N2C(=O)C(=Cc3ccc(-c4ccc(Oc5ccccc5)cc4)o3)SC2=S)cc1 [Compound A15] | > 41 µM
17 | O=C(O)c1ccc(N2C(=O)C(=Cc3ccc(-c4ccccc4Cl)o3)SC2=S)cc1 [Compound A16] | > 41 µM
18 | NS(=O)(=O)c1ccc(N2C(=O)C(=Cc3ccc(-c4ccc(Cl)cc4)o3)SC2=S)cc1 [Compound A17] | 11 to 40 µM
19 | NS(=O)(=O)c1ccc(N2C(=O)C(=Cc3ccc(-c4cccc(C(F)(F)F)c4)o3)SC2=S)cc1 [Compound A18] | 11 to 40 µM
20 | NS(=O)(=O)c1ccc(N2C(=O)C(=Cc3ccc(-c4cccc(Cl)c4)o3)SC2=S)cc1 [Compound A19] | 11 to 40 µM
21 | O=C(O)c1ccc(N2C(=O)C(=Cc3ccc(-c4ccc(Cl)cc4)o3)SC2=S)cc1 [Compound A20] | < 10 µM
22 | O=C(O)c1cccc(N2C(=O)C(=Cc3ccc(-c4ccc(Cl)cc4)o3)SC2=S)c1 [Compound A21] | < 10 µM
23 | O=C1C(=Cc2ccc(-c3ccccc3Cl)o2)SC(=S)N1c1ccc(O)cc1 [Compound A22] | < 10 µM

Row | Molecule | IC50
24 | O=C1C(=Cc2ccc(-c3cccc(C(F)(F)F)c3)o2)SC(=S)N1c1ccc(O)cc1 [Compound A23] | < 10 µM
25 | O=C1C(=Cc2ccc(-c3ccc(Cl)cc3)o2)SC(=S)N1c1ccc(O)cc1 [Compound A24] | < 10 µM
26 | NS(=O)(=O)c1cccc(N2C(=O)C(=Cc3ccc(-c4ccccc4Cl)o3)SC2=S)c1 [Compound A25] | 11 to 40 µM
27 | NS(=O)(=O)c1cccc(N2C(=O)C(=Cc3ccc(-c4cccc(C(F)(F)F)c4)o3)SC2=S)c1 [Compound A26] | 11 to 40 µM
28 | NS(=O)(=O)c1cccc(N2C(=O)C(=Cc3ccc(-c4ccc(Cl)cc4)o3)SC2=S)c1 [Compound A27] | < 10 µM
29 | O=C(O)c1cccc(N2C(=O)C(=Cc3cc(-c4cccc(C(F)(F)F)c4)co3)SC2=S)c1 [Compound A28] | < 10 µM
30 | O=C(O)c1ccc(N2C(=O)C(=Cc3cc(-c4cccc(C(F)(F)F)c4)co3)SC2=S)cc1 [Compound A29] | 11 to 40 µM
31 | CC(=O)NS(=O)(=O)c1ccc(N2C(=O)C(=Cc3ccc(-c4ccc(Cl)c(Cl)c4)o3)SC2=S)cc1 [Compound A30] | < 10 µM
32 | CC(=O)NS(=O)(=O)c1ccc(N2C(=O)C(=Cc3ccc(-c4cccc(C(F)(F)F)c4)o3)SC2=S)cc1 [Compound A31] | < 10 µM
33 | O=C(O)c1cc(N2C(=O)C(=Cc3ccc(-c4cccc(C(F)(F)F)c4)o3)SC2=S)ccc1O [Compound A32] | < 10 µM
34 | O=C(O)c1cc(N2C(=O)C(=Cc3ccc(-c4ccccc4Cl)o3)SC2=S)ccc1O [Compound A33] | < 10 µM
35 | O=C(O)c1cc(N2C(=O)C(=Cc3ccc(-c4ccc(Cl)cc4)o3)SC2=S)ccc1O [Compound A34] | < 10 µM
36 | O=C(O)c1cccc(N2C(=O)C(=Cc3ccc(-c4ccc(Cl)cc4Cl)o3)SC2=S)c1 [Compound A35] | 11 to 40 µM
37 | O=C(O)c1cccc(N2C(=O)C(=Cc3ccc(-c4cc(Cl)ccc4Cl)o3)SC2=S)c1 [Compound A36] | < 10 µM
38 | CC(=O)NS(=O)(=O)c1cccc(N2C(=O)C(=Cc3ccc(-c4ccccc4Cl)o3)SC2=S)c1 [Compound A37] | 11 to 40 µM
39 | CC(=O)NS(=O)(=O)c1cccc(N2C(=O)C(=Cc3ccc(-c4cccc(C(F)(F)F)c4)o3)SC2=S)c1 [Compound A38] | < 10 µM
40 | O=C(O)c1cccc(N2C(=O)C(=Cc3ccc(-c4c(Cl)cccc4Cl)o3)SC2=S)c1 [Compound A39] | 11 to 40 µM
41 | O=C(O)c1cc(N2C(=O)C(=Cc3ccc(-c4ccc(Cl)cc4Cl)o3)SC2=S)ccc1O [Compound A40] | 11 to 40 µM
42 | O=C(O)c1cc(N2C(=O)C(=Cc3ccc(-c4cc(Cl)ccc4Cl)o3)SC2=S)ccc1O [Compound A41] | 11 to 40 µM
43 | O=C(O)c1cc(N2C(=O)C(=Cc3ccc(-c4c(Cl)cccc4Cl)o3)SC2=S)ccc1O [Compound A42] | 11 to 40 µM
44 | O=C(O)c1cccc(N2C(=O)C(=Cc3ccc(-c4cc(C(F)(F)F)ccc4Cl)o3)SC2=S)c1 [Compound A44] | < 10 µM

Row | Molecule | IC50
45 | O=C(O)COc1ccc(N2C(=O)C(=Cc3ccc(-c4ccc(Cl)cc4)o3)SC2=S)cc1 [Compound A45] | 11 to 40 µM
46 | CC(C)c1ccc(-c2ccc(C=C3SC(=S)N(c4cccc(C(=O)O)c4)C3=O)o2)cc1 [Compound A46] | < 10 µM
47 | CC(C)c1ccc(-c2ccc(C=C3SC(=S)N(c4ccc(O)c(C(=O)O)c4)C3=O)o2)cc1 [Compound A47] | < 10 µM
48 | O=C(O)c1cccc(N2C(=O)C(=Cc3ccc(-c4ccc(C(=O)c5ccccc5)cc4)o3)SC2=S)c1 [Compound A48] | < 10 µM
49 | O=C1C(=Cc2ccc(-c3ccccc3Cl)o2)SC(=S)N1c1cccc(O)c1 [Compound A49] | 11 to 40 µM
50 | O=C1C(=Cc2ccc(-c3cccc(C(F)(F)F)c3)o2)SC(=S)N1c1cccc(O)c1 [Compound A50] | 11 to 40 µM
51 | O=C1C(=Cc2ccc(-c3ccc(Cl)cc3)o2)SC(=S)N1c1cccc(O)c1 [Compound A51] | 11 to 40 µM
52 | CC(C)c1ccc(-c2ccc(C=C3SC(=S)N(c4cccc(O)c4)C3=O)o2)cc1 [Compound A52] | 11 to 40 µM
53 | O=C(O)c1cccc(N2C(=O)C(=Cc3ccc(-c4ccc(CSc5ccccc5)cc4)o3)SC2=S)c1 [Compound A53] | 11 to 40 µM
54 | CC(C)c1cccc(-c2ccc(C=C3SC(=S)N(c4cccc(C(=O)O)c4)C3=O)o2)c1 [Compound A54] | < 10 µM
55 | CC(C)c1cccc(-c2ccc(C=C3SC(=S)N(c4cccc(O)c4)C3=O)o2)c1 [Compound A55] | 11 to 40 µM
56 | O=C(O)c1cccc(N2C(=O)C(=Cc3ccc(-c4ccc(C5CCCCC5)cc4)o3)SC2=S)c1 [Compound A56] | < 10 µM
57 | O=C(O)c1cc(N2C(=O)C(=Cc3ccc(-c4ccc(C5CCCCC5)cc4)o3)SC2=S)ccc1O [Compound A57] | < 10 µM
58 | CC(C)(C)c1ccc(-c2ccc(C=C3SC(=S)N(c4cccc(C(=O)O)c4)C3=O)o2)cc1 [Compound A58] | < 10 µM
59 | CC(C)(C)c1ccc(-c2ccc(C=C3SC(=S)N(c4ccc(O)c(C(=O)O)c4)C3=O)o2)cc1 [Compound A59] | < 10 µM
60 | O=C(O)COc1cccc(N2C(=O)C(=Cc3ccc(-c4ccc(Cl)cc4)o3)SC2=S)c1 [Compound A60] | 11 to 40 µM
61 | CC(C)c1cccc(-c2ccc(C=C3SC(=S)N(c4ccc(O)c(C(=O)O)c4)C3=O)o2)c1 [Compound A61] | < 10 µM
62 | O=C(O)c1cc(N2C(=O)C(=Cc3ccc(-c4ccc(CSc5ccccc5)cc4)o3)SC2=S)ccc1O [Compound A62] | 11 to 40 µM
63 | CC(C)c1cccc(-c2ccc(C=C3SC(=S)N(c4cccc(OCC(=O)O)c4)C3=O)o2)c1 [Compound A63] | < 10 µM
64 | CC(C)Cc1ccc(-c2ccc(C=C3SC(=S)N(c4cccc(C(=O)O)c4)C3=O)o2)cc1 [Compound A64] | < 10 µM

Same assay, conditions: read-out: Dlat IC50 category

Row | Molecule | IC50
65 | 2-{5-[2-(2-Chloro-benzyloxy)-benzylidene]-4-oxo-2-thioxo-thiazolidin-3-ylamino}-benzoic acid [Compound D32] | < 10 µM
